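Values below derive from 48-hour exposures of cells grown in 96-well plates, with endpoints linearly interpolated between the two concentrations bracketing the appropriate inhibition level. GI50 is the concentration that inhibits growth by half. The concentration for full growth arrest is given as TGI.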
Experiments:
Experiment in all cases: NCI anticancer screen, dose series, 48 h
HOP-92 NSCLC = system: HOP-92 NSCLC
SNB-19 CNS = system: SNB-19 CNS
U251 CNS = system: U251 CNS
HCC-2998 colon = system: HCC-2998 colon
HT29 colon = system: HT29 colon
OVCAR-5 ovarian = system: OVCAR-5 ovarian
HS 578T breast = system: HS 578T breast
A498 renal = system: A498 renal
SF-268 CNS = system: SF-268 CNS
SNB-75 CNS = system: SNB-75 CNS

Row | Compound | GI50 (HOP-92 NSCLC) [µM] | TGI (HOP-92 NSCLC) [µM] | GI50 (SNB-19 CNS) [µM] | TGI (SNB-19 CNS) [µM] | GI50 (U251 CNS) [µM] | TGI (U251 CNS) [µM] | GI50 (HCC-2998 colon) [µM] | TGI (HCC-2998 colon) [µM] | GI50 (HT29 colon) [µM] | TGI (HT29 colon) [µM] | GI50 (OVCAR-5 ovarian) [µM] | TGI (OVCAR-5 ovarian) [µM] | GI50 (HS 578T breast) [µM] | TGI (HS 578T breast) [µM] | GI50 (A498 renal) [µM] | TGI (A498 renal) [µM] | GI50 (SF-268 CNS) [µM] | TGI (SF-268 CNS) [µM] | GI50 (SNB-75 CNS) [µM] | TGI (SNB-75 CNS) [µM]
1 | Cc1c2ccncc2c(C)c2c1c1cc(CO)ccc1n2C | 0.636 | 4.87 | 0.431 | 4.24 | 0.293 | 1.94 | 0.72 | 3.42 | 0.338 | 1.78 | 0.267 | 0.984 | 0.96 | 7.86 | 0.02 | 0.0531 | 0.468 | 7.81 | 1.07 | 2.7
2 | COc1cc(C2CC(=O)Nc3c2cc(Br)c2ccccc32)cc(Br)c1OC (centres undefined) | 1 | 7.07 | 2.69 | 9.96 | 1.42 | 3.7 | 4.53 | > 100 | 0.514 | 4.21 | 3.02 | > 100 | 1.78 | > 54.2 | 1 | 3.29 | 4.63 | > 100 | 0.998 | 2.52
3 | O=C(O)COc1ccc(C(=O)/C(SS/C(C(=O)c2ccc(OCC(=O)O)c(Cl)c2Cl)=C2\C=C(c3ccc(Br)cc3)SS2)=C2/C=C(c3ccc(Br)cc3)SS2)c(Cl)c1Cl |  | 16 |  | 33.1 |  | 28.2 |  | > 42.8 |  | > 100 |  | > 100 |  | 17.4 |  | > 91.7 |  | 34 |  | 45.4
4 | Nc1n[nH]c(N)c1N=Nc1ccc(O)cc1 | 18.2 | 67.8 | 29.8 | > 100 | 21.2 | 86.2 | 29.4 | > 100 | 29.7 | > 100 | 23.5 | > 100 | 21.8 | 77.8 | 18.2 | 43.7 | 20.5 | 82.6 | 18.5 | 41.6
5 | C=C1C(=O)O[C@H]2[C@H]1CC/C(CNC(=O)/C=C/c1ccccc1)=C\CC[C@@]1(C)O[C@@H]21 | 1.46 | 3.38 | 2.39 | 10.9 | 1.77 | 3.55 | 1.78 | 3.31 | 0.754 | 3.04 | 1.61 | 4.27 | 4.21 | 37 | 1.96 | 4 | 2.86 | 8.88 | 1.67 | 4.74
6 | NC(=O)c1cccc(-c2cc(C(N)=O)ccc2Cl)c1 |  | 6.99 | 2.89 | > 100 | 2.88 | > 100 | 7.43 | > 100 | 1.19 | > 100 | 4.11 | > 100 | 2.59 | > 100 | 3.03 | 15.3 | 5.68 | > 100 | 1.1 | 5.5
7 | COc1cc2c(c(OC)c1OC)-c1c(cc3c(c1OC)OCO3)CC(C)C(C)(O)C2OC(=O)c1ccccc1 (centres undefined) |  | 73.7 |  | > 100 |  | > 100 |  | > 100 |  | 75.6 |  | > 100 |  | > 100 |  | > 100 |  | > 100 |  | > 100
8 | COc1cccc(C2C(C#N)=C(N)Oc3c2ccc2ccccc32)c1 (centres undefined) | < 0.0271 | 7.78 | 0.0322 | 20.5 | 0.0213 | 11.1 | 0.0355 | 1.1 | 0.0926 | 4.71 | 0.0801 | 19.8 | < 0.0133 | 15.1 | 0.0108 | 13.6 | 0.0315 | 10.5 | < 0.0151 | 15.1
9 | CC1=C(Cl)C[C@@H](/C(C)=C\Cl)O[C@@]1(O)C(Br)Br |  | 53.2 |  | > 100 |  | > 100 |  | 99.6 |  | > 100 |  | 44.2 |  | > 100 |  | 98.4 |  | > 100 |  | > 100
